Source: ChEMBL document CHEMBL2413048, “3,4-Dihydroxy- and 3,4-methylenedioxy- phenanthrene-type alkaloids with high selectivity for D2 dopamine receptor” (Bioorg Med Chem Lett, 2013)
The source made the active and inactive calls. The calls are words filed in the database; no cut-off is given here.

Columns and labels:
Rattus norvegicus = species: Rattus norvegicus; experiment: Selectivity ratio of Ki for D1 receptor of Wistar rat striatal membranes to Ki for D2 receptor of Wistar rat striatal membranes; format: cell membranes; details: Membrane
D(1A) dopamine receptor = D(1A) dopamine receptor (Rattus norvegicus, UniProt P18901); experiment: Displacement of [3H]-SCH23390 from D1 receptor of Wistar rat striatal membranes after 1 hr by liquid scintillation counting; format: cell membranes, Membrane
D(1A) dopamine receptor, sequence (P18901 whole entry): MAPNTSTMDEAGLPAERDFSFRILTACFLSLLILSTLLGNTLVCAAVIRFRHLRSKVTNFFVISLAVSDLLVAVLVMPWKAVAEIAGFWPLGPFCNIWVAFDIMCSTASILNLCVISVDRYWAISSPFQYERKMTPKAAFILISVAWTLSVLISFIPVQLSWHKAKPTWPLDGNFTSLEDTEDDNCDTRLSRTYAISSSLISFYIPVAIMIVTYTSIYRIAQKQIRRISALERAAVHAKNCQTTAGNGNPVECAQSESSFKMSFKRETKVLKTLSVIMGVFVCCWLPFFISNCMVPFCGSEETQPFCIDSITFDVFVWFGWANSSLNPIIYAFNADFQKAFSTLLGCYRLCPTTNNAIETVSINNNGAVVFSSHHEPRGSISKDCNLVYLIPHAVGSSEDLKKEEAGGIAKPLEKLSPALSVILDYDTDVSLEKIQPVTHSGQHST

D(2) dopamine receptor = D(2) dopamine receptor (Rattus norvegicus, UniProt P61169); experiment: (§1) Displacement of [3H]-raclopride from D2 receptor of Wistar rat striatal membranes after 1 hr by liquid scintillation counting; format: cell membranes, Membrane
D(2) dopamine receptor, sequence (P61169 whole entry): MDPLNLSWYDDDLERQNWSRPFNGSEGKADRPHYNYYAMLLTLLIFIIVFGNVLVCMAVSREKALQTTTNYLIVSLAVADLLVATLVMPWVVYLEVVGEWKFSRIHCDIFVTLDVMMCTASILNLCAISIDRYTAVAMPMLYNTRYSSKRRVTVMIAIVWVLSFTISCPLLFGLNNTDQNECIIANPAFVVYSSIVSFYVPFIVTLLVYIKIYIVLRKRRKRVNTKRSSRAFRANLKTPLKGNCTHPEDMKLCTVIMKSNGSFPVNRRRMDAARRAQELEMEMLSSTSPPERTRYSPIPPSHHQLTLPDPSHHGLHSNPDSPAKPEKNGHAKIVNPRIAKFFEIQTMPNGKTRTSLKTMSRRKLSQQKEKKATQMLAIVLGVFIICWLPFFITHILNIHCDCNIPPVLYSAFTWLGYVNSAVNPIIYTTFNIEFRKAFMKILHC

[1] = target: D(2) dopamine receptor (Rattus norvegicus) (UniProt P61169); experiment: as §1; format: cell membranes; details: Membrane
D(2) dopamine receptor (Rattus norvegicus), sequence (P61169 whole entry): as above

Activity [1]	SMILES	Ratio Ki (Rattus norvegicus)	Ki (D(1A) dopamine receptor; read-out: Ki) [nM]	Ki (D(1A) dopamine receptor; read-out: pKi (converted)) [nM]	Ki (D(2) dopamine receptor; read-out: Ki) [nM]	Ki (D(2) dopamine receptor; read-out: pKi (converted)) [nM]
inactive	COc1cc(CC[N+](C)(C)C)c2ccc3ccccc3c2c1OC					
inactive	C[N+](C)(C)CCc1cc2c(c3c1ccc1ccccc13)OCO2					

Second part, the compound before the results:

SMILES	Activity [1]	Ratio Ki (Rattus norvegicus)	Ki (D(1A) dopamine receptor; read-out: Ki) [nM]	Ki (D(1A) dopamine receptor; read-out: pKi (converted)) [nM]	Ki (D(2) dopamine receptor; read-out: Ki) [nM]	Ki (D(2) dopamine receptor; read-out: pKi (converted)) [nM]
CN(C)CCc1cc(O)c(O)c2c1ccc1ccccc12		157	7700	6190	49	38.5
COc1cc(CCN(C)C)c2ccc3ccccc3c2c1OC		9.1	2940	2920	323	321
C[N+]1(C)CCc2cc3c(c4c2C1Cc1ccccc1-4)OCO3 (racemic)	inactive					
CN(C)CCc1cc2c(c3c1ccc1ccccc13)OCO2		96	6350	4140	66	64.7
CN1CCc2cc(O)c(O)c3c2C1Cc1ccccc1-3 (configuration not stated)		8.9	401	397	45	38.6
COc1cc2c3c(c1OC)-c1ccccc1CC3[N+](C)(C)CC2 (configuration not stated)	inactive					
CN1CCc2cc3c(c4c2C1Cc1ccccc1-4)OCO3 (racemic) [ROEMERINE]		4.4	377	324	84	
COc1cc2c3c(c1OC)-c1ccccc1CC3N(C)CC2 (racemic) [(+/-)-NUCIFERINE]			630	587	209	173
